Reference: ChEMBL document CHEMBL2384925, “Structure-activity relationships for 4-anilinoquinoline derivatives as inhibitors of the DNA methyltransferase enzyme DNMT1” (2013)

Columns and labels:
[1] = target: DNA (cytosine-5)-methyltransferase 1 (Homo sapiens) (UniProt P26358); experiment: Inhibition of DNMT1 in human HCT116 cells at 5 uM after 24 hrs by Western blot analysis relative to control; assay type: cell-based; conditions: HCT-116
HCT-116 = experiment: Cytotoxicity against human HCT116 cells assessed as viability; assay type: functional; conditions: read-out: TD50 (the source's name)

Chain of DNA (cytosine-5)-methyltransferase 1 (Homo sapiens) (P26358 whole entry): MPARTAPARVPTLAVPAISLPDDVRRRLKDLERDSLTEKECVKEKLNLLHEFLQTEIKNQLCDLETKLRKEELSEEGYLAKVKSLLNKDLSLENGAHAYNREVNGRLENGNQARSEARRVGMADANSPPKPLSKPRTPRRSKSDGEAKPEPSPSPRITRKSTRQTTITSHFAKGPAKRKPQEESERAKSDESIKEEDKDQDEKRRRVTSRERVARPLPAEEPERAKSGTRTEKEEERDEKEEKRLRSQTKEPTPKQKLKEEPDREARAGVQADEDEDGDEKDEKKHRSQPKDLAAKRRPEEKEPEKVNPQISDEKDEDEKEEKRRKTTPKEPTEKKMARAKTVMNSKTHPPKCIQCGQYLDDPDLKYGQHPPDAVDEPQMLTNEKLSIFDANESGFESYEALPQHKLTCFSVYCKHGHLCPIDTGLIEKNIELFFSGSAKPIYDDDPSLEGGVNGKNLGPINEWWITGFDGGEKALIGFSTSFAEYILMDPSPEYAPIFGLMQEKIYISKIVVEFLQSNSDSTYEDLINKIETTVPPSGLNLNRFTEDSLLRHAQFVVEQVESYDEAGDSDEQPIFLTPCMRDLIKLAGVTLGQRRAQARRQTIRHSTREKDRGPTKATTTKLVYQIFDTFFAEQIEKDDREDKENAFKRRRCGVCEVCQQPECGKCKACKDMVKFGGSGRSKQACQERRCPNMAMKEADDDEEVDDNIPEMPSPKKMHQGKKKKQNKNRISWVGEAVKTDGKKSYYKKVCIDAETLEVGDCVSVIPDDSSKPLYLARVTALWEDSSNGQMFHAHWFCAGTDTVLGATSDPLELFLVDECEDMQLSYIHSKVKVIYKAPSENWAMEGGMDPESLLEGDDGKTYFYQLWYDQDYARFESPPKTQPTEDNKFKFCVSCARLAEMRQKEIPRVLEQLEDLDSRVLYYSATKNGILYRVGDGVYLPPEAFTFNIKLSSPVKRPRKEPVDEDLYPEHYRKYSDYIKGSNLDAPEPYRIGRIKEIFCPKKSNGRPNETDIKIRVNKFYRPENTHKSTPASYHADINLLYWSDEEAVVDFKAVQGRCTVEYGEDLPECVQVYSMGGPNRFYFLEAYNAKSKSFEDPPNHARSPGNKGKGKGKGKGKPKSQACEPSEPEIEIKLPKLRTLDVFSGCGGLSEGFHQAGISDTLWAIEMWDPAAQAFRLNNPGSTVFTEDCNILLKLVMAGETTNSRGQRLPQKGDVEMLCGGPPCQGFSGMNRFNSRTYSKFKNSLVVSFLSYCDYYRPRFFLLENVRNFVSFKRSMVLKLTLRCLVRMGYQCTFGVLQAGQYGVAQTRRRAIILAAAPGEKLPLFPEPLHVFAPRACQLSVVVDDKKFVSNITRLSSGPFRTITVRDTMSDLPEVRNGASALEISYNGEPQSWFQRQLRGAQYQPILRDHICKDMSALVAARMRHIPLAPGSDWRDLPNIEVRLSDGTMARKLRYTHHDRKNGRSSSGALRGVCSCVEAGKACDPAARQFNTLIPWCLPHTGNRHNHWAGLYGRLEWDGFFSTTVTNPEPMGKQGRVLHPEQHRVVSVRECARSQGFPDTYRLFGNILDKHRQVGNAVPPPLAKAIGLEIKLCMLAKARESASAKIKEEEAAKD

| Structure (SMILES) | inhibition [1] | CC50 (HCT-116) |
| --- | --- | --- |
| C/C(=N\N=C(N)N)c1cccc(C(=O)Nc2ccc(Nc3ccnc4ccc(N(C)C)cc34)cc2)c1 | 40% | 25 µM |
| CN(C)c1ccc2nccc(Nc3ccc(NC(=O)c4ccc(Nc5cc[n+](C)cc5)cc4)cc3)c2c1 | 45% | 50 µM |
| C[n+]1ccc(Nc2cccc(NC(=O)c3ccc(Nc4ccnc5ccccc45)cc3)c2)cc1 | 0% | 12.5 µM |
| C[n+]1ccc(Nc2ccc(NC(=O)c3ccc(Nc4ccnc5ccc(N)cc45)cc3)cc2)cc1 | 0% | 50 µM |
| CN(C)c1ccc2nccc(Nc3ccc(NC(=O)c4cccc(Nc5cc[n+](C)cc5)c4)cc3)c2c1 | 75% | 25 µM |
| C/C(=N\N=C(N)N)c1ccc(C(=O)Nc2ccc(Nc3ccnc4ccc(N(C)C)cc34)cc2)cc1 | 34% | 25 µM |
| CN(C)c1ccc2nccc(Nc3ccc(C(=O)Nc4cccc(Nc5cc[n+](C)cc5)c4)cc3)c2c1 | 0% | 25 µM |
| CN(C)c1ccc2nccc(Nc3ccc(C(=O)Nc4ccc(Nc5cc[n+](C)cc5)cc4)cc3)c2c1 | 16% | 50 µM |
| C/C(=N\N=C(N)N)c1cccc(NC(=O)c2ccc(Nc3ccnc4ccc(N(C)C)cc34)cc2)c1 | 0% | 25 µM |
| C[n+]1ccc(Nc2cccc(C(=O)Nc3ccc(Nc4ccnc5ccc(N)cc45)cc3)c2)cc1 | 80% | 25 µM |
| C[n+]1ccc(Nc2cccc(NC(=O)c3ccc(Nc4ccnc5ccc(N)cc45)cc3)c2)cc1 | 2% | 12.5 µM |
| C/C(=N\N=C(N)N)c1ccc(NC(=O)c2ccc(Nc3ccnc4ccc(N(C)C)cc34)cc2)cc1 | 30% | 25 µM |

Continued, in another order:

| inhibition [1] | Structure (SMILES) | CC50 (HCT-116) |
| --- | --- | --- |
| 0% | C[n+]1ccc(Nc2ccc(NC(=O)c3ccc(Nc4ccnc5ccccc45)cc3)cc2)cc1 | 25 µM |
| 75% | Cc1cc(Nc2ccc(C(=O)Nc3ccc(Nc4ccnc5ccccc45)cc3)cc2)nc(N)n1 | 25 µM |
| 80% | C[n+]1ccc(Nc2cccc(C(=O)Nc3ccc(Nc4ccnc5ccccc45)cc3)c2)cc1 | 25 µM |
| 30% | Cc1cc(Nc2ccc(NC(=O)c3ccc(Nc4ccnc5ccc(Cl)cc45)cc3)cc2)nc(N)n1 | 25 µM |
| 43% | Cc1cc(Nc2ccc(NC(=O)c3ccc(Nc4ccnc5ccc(N(C)C)cc45)cc3)cc2)nc(N)n1 | 25 µM |
| 0% | C[n+]1ccc(Nc2ccc(C(=O)Nc3ccc(Nc4ccnc5ccccc45)cc3)cc2)cc1 | 12.5 µM |
| 18% | Cc1cc(Nc2ccc(NC(=O)c3ccc(Nc4ccnc5c(F)c(F)c(F)cc45)cc3)cc2)nc(N)n1 | 25 µM |
| 0% | C[n+]1ccc(Nc2ccc(C(=O)Nc3ccc(Nc4ccnc5ccc(N)cc45)cc3)cc2)cc1 | 50 µM |
| 85% | Cc1cc(Nc2cccc(C(=O)Nc3ccc(Nc4ccnc5ccccc45)cc3)c2)nc(N)n1 | 25 µM |
| 97% | Cc1cc(Nc2ccc(NC(=O)c3ccc(Nc4ccnc5ccccc45)cc3)cc2)nc(N)n1 | 25 µM |
